Assay results published in ChEMBL document CHEMBL1150114, “Isolation and structure of a 20,21-epoxybufenolide series from "Ch'an Su"” (J Nat Prod, 2002).
Converted amounts (≈) assume the structure as drawn.

What was measured:
MH60 = assay: Cytotoxicity against mouse MH60 cells after 72 hrs by MTT assay; assay type: functional, cell-based; details: MH60, 72 h
KB = assay: Cytotoxicity against human KB cells after 72 hrs by MTT assay; assay type: functional, cell-based

Row | SMILES | IC50 (MH60) | IC50 (KB)
1 | C[C@]12CC[C@H](OC=O)C[C@H]1CC[C@@H]1[C@@H]2CC[C@]2(C)[C@@H]([C@]34C=CC(=O)O[C@H]3O4)C[C@H]3O[C@]132 | > 25 µg/mL | > 25 µg/mL
2 | C[C@]12CC[C@H](OC=O)C[C@H]1CC[C@@H]1[C@@H]2CC[C@]2(C)[C@@H]([C@@]34C=CC(=O)O[C@@H]3O4)C[C@H]3O[C@]132 | > 25 µg/mL | > 25 µg/mL
3 | C[C@]12CC[C@H](O)C[C@H]1CC[C@@H]1[C@@H]2CC[C@]2(C)[C@@H]([C@@]34C=CC(=O)O[C@@H]3O4)C[C@H]3O[C@]132 | 1.82 µg/mL (≈ 4.54 µM) | 10.9 µg/mL (≈ 27.2 µM)
4 | C[C@]12CCC(=O)C[C@H]1CC[C@@H]1[C@@H]2CC[C@]2(C)[C@@H]([C@@]34C=CC(=O)O[C@@H]3O4)C[C@H]3O[C@]132 | 8.54 µg/mL (≈ 21.4 µM) | 18.5 µg/mL (≈ 46.4 µM)
5 | C[C@]12CC[C@H](O)C[C@H]1CC[C@@H]1[C@@H]2CC[C@]2(C)[C@@H]([C@]34C=CC(=O)O[C@H]3O4)C[C@H]3O[C@]132 | 1.8 µg/mL (≈ 4.49 µM) | 8.09 µg/mL (≈ 20.2 µM)
6 | C[C@]12CC[C@H](O)C[C@H]1CC[C@@H]1[C@@H]2CC[C@]2(C)[C@@H](c3ccc(=O)oc3)C[C@H]3O[C@]132 [BUFOGENIN] | 10.5 µg/mL (≈ 27.3 µM) | 1.34 µg/mL (≈ 3.48 µM)
